Assay results: patent publication US20160101109A1, “METHOD OF TREATING ARTHRITIS” (AbbVie Inc., priority 2007, published 2016)
“Also recorded” adds a separate entry of the source.

How the values were obtained:
[1] = test system: KLH antigen-specific T cells; assay: KLH immunization of mice, ex vivo restimulation of T cells; format: in vivo, mouse
From the text: Mice were immunized with keyhole limpet hemocyanin (KLH) and treated with EXAMPLE A or vehicle control.

[2] = test system: activated B lymphocytes; assay: lipopolysaccharide stimulation, mouse lymphocyte in vitro activation; format: cell-based
[3] = test system: activated T lymphocytes; assay: mixed-lymphocyte reaction (MLR), mouse lymphocyte in vitro activation; format: cell-based
[4] = test system: DBA/1J (H-2q) mice immunized with collagen; assay: mouse model of arthritis (collagen immunization, zymosan boost); format: in vivo; conditions: EXAMPLE A 50 mg/kg per day, dexamethasone 1 mg/kg per day, 3 weeks, p<0.5 versus vehicle control
Method: Also, a standard mouse model of arthritis using DBA/1J (H-2q) mice immunized with collagen and boosted with zymosan 21 days later was used to induce disease. The mice were than treated with EXAMPLE A (50 mg/kg per day), vehicle (with no drug) and dexamethasone (1 mg/kg per day) at the first clinical sign of disease. The mice were then evaluated for mean arthritic score (MAS) and paw swelling for 3 weeks after treatment began.

[5] = test system: mouse ankles; assay: total bone volume by microcomputed tomography (μCT) of mouse ankles; format: in vivo; conditions: 1.8-mm section of ankle, resolution 18 μm, FIG. 3
Method: Still also, total bone volumes were measured by microcomputed tomography (μCT) for a 1.8-mm tall section of mouse ankles from the base of the tibia to the tarsal/metatarsal joints at a resolution of 18 μm.

CN(C)CC[C@H](CSc1ccccc1)Nc1ccc(S(=O)(=O)NC(=O)c2ccc(N3CCN(Cc4ccccc4-c4ccc(Cl)cc4)CC3)cc2)cc1[N+](=O)[O-] [EXAMPLE A, N-(4-(4-((4′-chloro(1,1′-biphenyl)-2-yl)methyl)piperazin-1-yl)benzoyl)-4-(((1R)-3-(dimethylamino)-1-((phenylsulfanyl)methyl)propyl)amino)-3-nitrobenzenesulfonamide]
responsiveness of T cells spared after treatment ([1]; concavalin A stimulation): responsive to concavalin A
proliferation of KLH antigen-specific T cells on restimulation ex vivo ([1]; mice immunized with KLH and treated, versus vehicle control): significant inhibition of proliferation
proliferation of activated B lymphocytes upon lipopolysaccharide stimulation [2]: inhibited in a concentration-dependent manner
proliferation of activated T lymphocytes in a mixed-lymphocyte reaction (MLR) [3]: inhibited in a concentration-dependent manner
paw swelling ([4]; FIG. 1): inhibition of arthritis; also recorded: reduction in mouse paw swelling
arthritis as assessed by MAS (mean arthritic score) ([4]; FIG. 2): inhibition of arthritis
mouse bone volume [5]: increase in mouse bone volume
